In ChEMBL document CHEMBL1201862, “PubChem BioAssay data set” (2004):
The source made the active and inactive calls.

Tests used:
[1] = biological target: T1, Caspase-6 (Homo sapiens, UniProt P55212); experiment: inhibition of CASP6 peptide cleavage – biochemical, VEID-R110 fluorescence, cherry-pick, dose response (AID 720632)
T1 sequence (P55212 whole entry): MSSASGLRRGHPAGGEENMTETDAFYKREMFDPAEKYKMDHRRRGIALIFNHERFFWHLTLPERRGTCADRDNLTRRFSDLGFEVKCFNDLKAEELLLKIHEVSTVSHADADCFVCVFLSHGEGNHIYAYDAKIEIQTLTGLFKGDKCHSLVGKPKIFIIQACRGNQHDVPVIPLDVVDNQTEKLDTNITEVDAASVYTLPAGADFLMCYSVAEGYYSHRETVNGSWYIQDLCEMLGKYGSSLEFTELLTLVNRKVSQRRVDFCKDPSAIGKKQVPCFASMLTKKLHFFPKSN

[2] = biological target: T2, Alkaline phosphatase, tissue-nonspecific isozyme (Homo sapiens, UniProt P05186); experiment: activation of tissue-nonspecific alkaline phosphatase – biochemical, TNAP isozyme, mouse IAP uHTS hits, selectivity assay for mouse IAP activator project, dose response (AID 488880); type: functional
T2 sequence (P05186 whole entry): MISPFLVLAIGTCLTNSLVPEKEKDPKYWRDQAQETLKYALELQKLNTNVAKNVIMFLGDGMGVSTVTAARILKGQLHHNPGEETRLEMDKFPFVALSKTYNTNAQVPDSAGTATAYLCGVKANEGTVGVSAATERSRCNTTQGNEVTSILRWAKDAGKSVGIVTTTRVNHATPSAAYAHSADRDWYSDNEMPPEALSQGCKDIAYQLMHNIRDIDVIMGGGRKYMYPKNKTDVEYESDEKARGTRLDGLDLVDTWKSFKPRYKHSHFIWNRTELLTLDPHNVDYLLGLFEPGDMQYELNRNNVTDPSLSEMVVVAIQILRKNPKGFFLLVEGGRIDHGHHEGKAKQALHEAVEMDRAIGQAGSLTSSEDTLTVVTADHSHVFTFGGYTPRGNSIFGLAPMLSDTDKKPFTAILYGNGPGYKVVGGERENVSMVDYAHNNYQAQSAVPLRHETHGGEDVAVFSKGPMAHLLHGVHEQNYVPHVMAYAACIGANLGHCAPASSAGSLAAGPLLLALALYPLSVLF

[3] = biological target: Intestinal-type alkaline phosphatase (Mus musculus, UniProt P24822); experiment: mouse intestinal alkaline phosphatase activators, dose response, biochemical, luminescence, uHTS hits (AID 488783); type: functional
[4] = biological target: Intestinal-type alkaline phosphatase (Homo sapiens, UniProt P09923); experiment: activation of human intestinal alkaline phosphatase – biochemical, dose response (AID 488873); type: functional
[5] = biological target: T3, Replicative DNA helicase DnaB (Mycobacterium tuberculosis, UniProt P9WMR3); experiment: DnaB intein splicing inhibitors, dose response, biochemical, cell-free fluorescence (AID 449749); type: functional
T3 sequence (P9WMR3 whole entry): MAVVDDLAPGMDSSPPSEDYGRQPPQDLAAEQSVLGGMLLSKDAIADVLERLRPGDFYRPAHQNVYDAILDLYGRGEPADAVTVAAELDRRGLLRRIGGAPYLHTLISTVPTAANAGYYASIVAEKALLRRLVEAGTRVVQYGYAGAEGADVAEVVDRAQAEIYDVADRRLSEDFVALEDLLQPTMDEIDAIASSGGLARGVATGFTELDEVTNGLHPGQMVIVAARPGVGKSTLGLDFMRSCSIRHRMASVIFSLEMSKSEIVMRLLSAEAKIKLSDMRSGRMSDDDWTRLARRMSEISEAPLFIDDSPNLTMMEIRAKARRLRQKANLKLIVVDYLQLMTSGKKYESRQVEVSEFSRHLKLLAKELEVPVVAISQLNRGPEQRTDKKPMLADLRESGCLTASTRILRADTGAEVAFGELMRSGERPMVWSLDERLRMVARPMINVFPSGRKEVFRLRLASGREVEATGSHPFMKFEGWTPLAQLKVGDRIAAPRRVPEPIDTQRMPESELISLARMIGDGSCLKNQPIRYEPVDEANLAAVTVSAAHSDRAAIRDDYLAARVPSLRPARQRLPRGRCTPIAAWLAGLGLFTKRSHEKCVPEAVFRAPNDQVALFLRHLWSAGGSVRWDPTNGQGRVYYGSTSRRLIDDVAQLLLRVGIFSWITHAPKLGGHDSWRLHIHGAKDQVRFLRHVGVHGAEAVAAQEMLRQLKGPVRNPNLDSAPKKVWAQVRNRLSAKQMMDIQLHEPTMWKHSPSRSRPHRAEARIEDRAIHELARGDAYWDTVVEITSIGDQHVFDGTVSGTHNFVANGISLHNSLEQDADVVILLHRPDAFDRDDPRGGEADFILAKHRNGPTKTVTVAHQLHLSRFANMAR

[6] = biological target: T4, Protein RecA (Mycobacterium tuberculosis, UniProt P9WHJ3); experiment: Fluorescence Cell-Free Homogeneous Dose Retest to Identify Inhibitors of RecA-Intein Splicing Activity. [Related pubchem assays (depositor defined):AID2097, AID2223, AID489010, AID492950]; type: functional
T4 sequence (P9WHJ3 whole entry): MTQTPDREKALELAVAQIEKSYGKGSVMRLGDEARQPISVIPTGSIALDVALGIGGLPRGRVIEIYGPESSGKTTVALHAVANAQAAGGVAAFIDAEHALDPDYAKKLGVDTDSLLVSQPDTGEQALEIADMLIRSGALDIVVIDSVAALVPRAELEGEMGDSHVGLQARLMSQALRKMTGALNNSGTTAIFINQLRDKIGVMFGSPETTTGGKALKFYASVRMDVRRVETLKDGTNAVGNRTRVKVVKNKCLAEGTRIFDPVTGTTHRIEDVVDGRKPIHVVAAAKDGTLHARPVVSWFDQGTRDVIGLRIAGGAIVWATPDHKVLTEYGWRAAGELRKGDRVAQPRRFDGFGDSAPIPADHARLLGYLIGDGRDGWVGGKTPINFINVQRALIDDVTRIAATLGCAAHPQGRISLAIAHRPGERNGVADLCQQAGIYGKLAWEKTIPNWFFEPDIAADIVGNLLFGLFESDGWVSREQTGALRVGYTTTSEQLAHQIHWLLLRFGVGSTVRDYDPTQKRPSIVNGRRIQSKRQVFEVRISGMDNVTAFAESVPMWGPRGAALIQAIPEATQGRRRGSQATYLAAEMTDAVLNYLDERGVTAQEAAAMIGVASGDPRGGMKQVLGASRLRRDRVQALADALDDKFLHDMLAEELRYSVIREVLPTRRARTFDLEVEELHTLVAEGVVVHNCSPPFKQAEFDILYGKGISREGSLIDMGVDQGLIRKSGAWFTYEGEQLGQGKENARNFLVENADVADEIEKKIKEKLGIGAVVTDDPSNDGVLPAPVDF

[7] = test system: CHO-K1; experiment: (§1) Counterscreen for antagonists of the orexin 1 receptor (OX1R; HCRTR1): Homogeneous time resolved fluorescence (HTRF)-based cell-based dose response assay to identify antagonists of the parental CHO-K1 cell line. [Related pubchem assays (depositor defined):AID434989, AID435008, AID463079, AID485270, AID492963, AID492964, AID492965, AID493232, AID504699, AID504701]; type: functional; conditions: Cricetulus griseus
[8] = as §1, with “Fluorescence-based” for “Homogeneous time resolved fluorescence (HTRF)-based”, “cell-based high throughput” for “cell-based”, “CHO” for “CHO-K1”; type: functional
[9] = biological target: T5, Orexin/Hypocretin receptor type 1 (Homo sapiens, UniProt O43613); experiment: (§2) Fluorescence-based cell-based high throughput dose response assay for antagonists of the orexin 1 receptor (OX1R; HCRTR1). [Related pubchem assays (depositor defined):AID434989, AID435008, AID463079, AID485270, AID492963, AID492964, AID492965, AID493232, AID504717, AID504718]; type: functional
[10] = biological target: T5, Orexin/Hypocretin receptor type 1; experiment: as §2, with “Homogeneous Time Resolved Fluorescence (HTRF)-based” for “Fluorescence-based”; type: functional
[11] = biological target: T6, Kappa-type opioid receptor (Homo sapiens, UniProt P41145); type: functional
[12] = biological target: T7, Delta-type opioid receptor (Homo sapiens, UniProt P41143); experiment: delta opioid receptor blockers – image-based, SAR follow-up (AID 2357); type: functional
[13] = biological target: T8, Mu-type opioid receptor (Homo sapiens, UniProt P35372); experiment: HTS Image-Based Screen for Agonists of the MOR Receptor. [Related pubchem assays (depositor defined):AID1777, AID1785, AID1786, AID2133]; type: functional
[14] = biological target: T6, Kappa-type opioid receptor; type: functional; remark: listed apart in the source
[15] = biological target: T6, Kappa-type opioid receptor; experiment: kappa opioid receptor activation potency – imaging, image-based, SAR follow-up (AID 2359); type: functional
[16] = biological target: T7, Delta-type opioid receptor; experiment: HTS Image-Based Screen for Agonists of the DOR Receptor. [Related pubchem assays (depositor defined):AID1777, AID1786, AID2133]; type: functional
[17] = biological target: T6, Kappa-type opioid receptor; experiment: SAR analysis of small molecule agonists of the kappa opioid receptor via a luminescent beta-arrestin assay. [Related pubchem assays (depositor defined):AID1777, AID1786, AID1966, AID2133, AID2136, AID2348, AID2352, AID2357, AID2359, AID2370, AID2420, AID2478, AID2491, AID2492, AID2493, AID2497, AID2498, AID2500, AID449737, AID488822, AID488842]; type: functional
[18] = biological target: T7, Delta-type opioid receptor; experiment: DOR agonists, SAR follow-up, image-based (AID 2370); type: functional
[19] = biological target: T8, Mu-type opioid receptor; experiment: mu opioid receptor activators, image-based, SAR follow-up (AID 2352); type: functional
[20] = biological target: T8, Mu-type opioid receptor; experiment: mu opioid receptor blockers – image-based, SAR follow-up (AID 2420); type: functional;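 note: compounds added before stimulation of receptor with agonist DAMGO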
[21] = biological target: T6, Kappa-type opioid receptor; experiment: kappa opioid receptor blockers, image-based, SAR follow-up (AID 2348); type: functional
[22] = biological target: T7, Delta-type opioid receptor; experiment: HTS Image-Based Screen for Antagonists of the DOR Receptor. [Related pubchem assays (depositor defined):AID1777, AID1785, AID1786, AID2133]; type: functional

T8 sequence (P35372 whole entry): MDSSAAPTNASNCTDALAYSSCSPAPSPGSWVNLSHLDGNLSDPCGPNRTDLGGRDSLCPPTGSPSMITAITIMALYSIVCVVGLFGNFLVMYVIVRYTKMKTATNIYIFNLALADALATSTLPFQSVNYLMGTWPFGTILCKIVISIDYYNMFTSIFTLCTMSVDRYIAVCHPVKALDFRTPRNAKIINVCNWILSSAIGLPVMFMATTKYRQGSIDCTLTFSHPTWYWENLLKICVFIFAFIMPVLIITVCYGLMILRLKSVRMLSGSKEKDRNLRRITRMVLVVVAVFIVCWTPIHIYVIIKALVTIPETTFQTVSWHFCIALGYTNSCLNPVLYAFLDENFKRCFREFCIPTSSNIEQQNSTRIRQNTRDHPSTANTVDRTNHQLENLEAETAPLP
T6 sequence (P41145 whole entry): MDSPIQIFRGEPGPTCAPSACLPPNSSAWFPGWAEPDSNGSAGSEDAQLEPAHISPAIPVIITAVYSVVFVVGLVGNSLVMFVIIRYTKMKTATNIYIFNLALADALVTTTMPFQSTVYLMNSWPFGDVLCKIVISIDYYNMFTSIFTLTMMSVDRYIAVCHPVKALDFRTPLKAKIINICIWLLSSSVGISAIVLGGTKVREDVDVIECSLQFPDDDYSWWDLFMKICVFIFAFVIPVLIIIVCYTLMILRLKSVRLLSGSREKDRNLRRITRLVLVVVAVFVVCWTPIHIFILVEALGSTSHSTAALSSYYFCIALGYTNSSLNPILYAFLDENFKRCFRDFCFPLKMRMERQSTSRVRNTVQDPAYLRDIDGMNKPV
T7 sequence (P41143 whole entry): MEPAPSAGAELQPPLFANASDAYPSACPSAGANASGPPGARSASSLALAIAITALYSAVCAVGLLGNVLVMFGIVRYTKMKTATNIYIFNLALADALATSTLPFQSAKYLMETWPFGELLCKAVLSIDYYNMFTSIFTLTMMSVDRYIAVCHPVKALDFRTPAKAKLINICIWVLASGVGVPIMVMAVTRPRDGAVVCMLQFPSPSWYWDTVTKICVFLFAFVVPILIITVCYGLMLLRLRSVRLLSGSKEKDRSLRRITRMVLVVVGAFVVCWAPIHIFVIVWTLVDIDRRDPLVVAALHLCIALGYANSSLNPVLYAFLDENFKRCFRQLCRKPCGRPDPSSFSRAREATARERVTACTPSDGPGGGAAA
T5 sequence (O43613 whole entry): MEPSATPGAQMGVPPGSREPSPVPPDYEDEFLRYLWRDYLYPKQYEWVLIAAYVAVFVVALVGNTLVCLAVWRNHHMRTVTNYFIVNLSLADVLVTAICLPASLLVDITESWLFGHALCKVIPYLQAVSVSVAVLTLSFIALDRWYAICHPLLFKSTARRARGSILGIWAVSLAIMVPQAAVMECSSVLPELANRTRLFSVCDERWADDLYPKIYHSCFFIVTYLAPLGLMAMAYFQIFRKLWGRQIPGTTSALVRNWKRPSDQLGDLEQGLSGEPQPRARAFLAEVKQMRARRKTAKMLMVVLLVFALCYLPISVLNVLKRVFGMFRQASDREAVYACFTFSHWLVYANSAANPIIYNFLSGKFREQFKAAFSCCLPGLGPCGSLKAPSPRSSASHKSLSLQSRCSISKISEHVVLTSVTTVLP
Chain of Intestinal-type alkaline phosphatase (Mus musculus, UniProt P24822) (P24822 whole entry): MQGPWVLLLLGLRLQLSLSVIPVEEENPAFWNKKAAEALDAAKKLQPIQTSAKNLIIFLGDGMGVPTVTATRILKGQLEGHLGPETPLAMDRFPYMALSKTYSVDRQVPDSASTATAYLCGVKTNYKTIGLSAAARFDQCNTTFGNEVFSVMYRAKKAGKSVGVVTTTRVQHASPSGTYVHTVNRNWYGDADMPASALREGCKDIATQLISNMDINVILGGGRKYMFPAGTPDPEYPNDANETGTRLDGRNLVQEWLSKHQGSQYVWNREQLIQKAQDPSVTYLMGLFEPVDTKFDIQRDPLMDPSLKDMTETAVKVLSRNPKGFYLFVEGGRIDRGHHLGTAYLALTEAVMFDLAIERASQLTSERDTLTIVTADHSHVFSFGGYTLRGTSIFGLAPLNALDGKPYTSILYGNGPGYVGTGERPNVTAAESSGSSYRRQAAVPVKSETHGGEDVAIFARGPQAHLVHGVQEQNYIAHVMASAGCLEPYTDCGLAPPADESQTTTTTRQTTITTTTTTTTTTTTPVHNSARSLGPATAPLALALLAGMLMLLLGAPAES
Chain of Intestinal-type alkaline phosphatase (Homo sapiens, UniProt P09923) (P09923 whole entry): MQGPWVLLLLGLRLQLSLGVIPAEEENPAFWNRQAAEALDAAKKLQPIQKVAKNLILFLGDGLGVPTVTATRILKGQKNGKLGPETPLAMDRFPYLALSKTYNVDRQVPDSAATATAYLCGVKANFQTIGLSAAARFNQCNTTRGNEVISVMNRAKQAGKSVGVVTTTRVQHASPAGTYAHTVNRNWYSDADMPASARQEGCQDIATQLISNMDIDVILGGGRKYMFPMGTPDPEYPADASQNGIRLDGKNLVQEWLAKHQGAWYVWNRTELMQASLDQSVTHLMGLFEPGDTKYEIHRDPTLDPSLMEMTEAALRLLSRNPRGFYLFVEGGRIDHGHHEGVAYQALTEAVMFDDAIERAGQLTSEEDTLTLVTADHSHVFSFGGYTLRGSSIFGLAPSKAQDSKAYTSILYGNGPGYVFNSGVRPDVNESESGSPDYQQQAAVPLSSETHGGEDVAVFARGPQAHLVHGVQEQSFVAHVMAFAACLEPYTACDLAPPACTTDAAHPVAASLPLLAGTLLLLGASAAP

Q: With O=C(COC(=O)c1ccc(Br)o1)Nc1ncc([N+](=O)[O-])s1 as the molecule, how does the AC50 [1] read?
A: 8.5 µM (active)

Q: What about the EC50 [2] of the same molecule?
A: 85.8 µM (active)

Q: What about the EC50 [3] of the same molecule?
A: 39.9 µM (active)

Q: And the EC50 [4]?
A: 68.4 µM (active)

Q: Which results are given for COc1ccc(S(=O)(=O)Nc2c(O)ccc3ccccc23)cc1OC?
A: AC50 [5]: 5.46 µM (active); EC50 [6]: 2.85 µM (active); IC50 [7]: 27 µM (inactive); IC50 [8]: > 49.8 µM (inactive); IC50 [9]: > 16.6 µM (inactive); IC50 [10]: 3.15 µM (active)

Q: For C(=C\c1ccccc1)/CSc1nnc(-c2ccccn2)n1Cc1ccco1, which EC50 [11] is on record?
A: 3.18 µM

Q: What about the IC50 [12] of the same molecule?
A: > 32 µM (inactive)

Q: What about the EC50 [13] of the same molecule?
A: > 32 µM (inactive)

Q: What about the EC50 [14] of the same molecule?
A: 5.22 µM

Q: And the EC50 [15]?
A: 1.43 µM (active)

Q: And the EC50 [16]?
A: > 32 µM (inactive)

Q: What about the EC50 [17] of the same molecule?
A: 2.22 µM (active)

Q: What about the EC50 [18] of the same molecule?
A: > 32 µM (inactive)

Q: What about the EC50 [19] of the same molecule?
A: > 32 µM (inactive)

Q: What about the IC50 [20] of the same molecule?
A: > 32 µM (inactive)

Q: What about the IC50 [21] of the same molecule?
A: > 32 µM (inactive)

Q: And the IC50 [22]?
A: > 32 µM (inactive)
